Laboratory results reported in ChEMBL document CHEMBL1201862, “PubChem BioAssay data set” (2004).
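Five concentrations, 48 hours, 96-well plates. Here, GI50 denotes the concentration required for 50% inhibition of growth.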 Calls of active or inactive are those of the source. Cut-off read from the data, not from the text of the source: active = GI50 up to about 1.1 µM and inactive = higher.

What was measured:
Test in all cases: growth of human tumour cells (NCI), 48 h
CAKI-1 = test system: CAKI-1
NCI-H226 = test system: NCI-H226
OVCAR-4 = test system: OVCAR-4
SK-OV-3 = test system: SK-OV-3
Malme-3M = test system: Malme-3M
SNB-19 = test system: SNB-19
RPMI-8226 = test system: RPMI-8226
U-251 = test system: U-251
SK-MEL-5 = test system: SK-MEL-5
OVCAR-3 = test system: OVCAR-3
ACHN = test system: ACHN
SN12C = test system: SN12C
HOP-62 = test system: HOP-62
T47D = test system: T47D
TK-10 = test system: TK-10
HT-29 = test system: HT-29
MDA-N = test system: MDA-N
NCI-H460 = test system: NCI-H460
EKVX = test system: EKVX

Measured: GI50

CSc1ccc(NC(=S)NN(C)C)cc1
inactive: CAKI-1 > 10 µM | NCI-H226 > 10 µM | OVCAR-4 > 10 µM | SK-OV-3 > 10 µM | Malme-3M > 10 µM | SNB-19 > 10 µM | RPMI-8226 > 10 µM | U-251 > 10 µM | SK-MEL-5 > 10 µM | OVCAR-3 > 10 µM | ACHN > 10 µM | SN12C > 10 µM | HOP-62 > 10 µM | T47D > 10 µM | TK-10 > 10 µM | HT-29 > 10 µM | MDA-N > 10 µM | NCI-H460 > 10 µM | EKVX > 10 µM

C\C(=N/N=C1/C(=C\N(C)C)C(=O)NC(=O)N1C)c1ccc(Cl)cc1
inactive: CAKI-1 76.4 µM | NCI-H226 68.5 µM | OVCAR-4 > 100 µM | SK-OV-3 > 100 µM | Malme-3M > 100 µM | SNB-19 > 100 µM | RPMI-8226 26.9 µM | U-251 > 100 µM | SK-MEL-5 > 100 µM | OVCAR-3 > 100 µM | ACHN > 100 µM | SN12C > 100 µM | HOP-62 > 100 µM | T47D 82.4 µM | TK-10 57.3 µM | HT-29 > 100 µM | MDA-N > 100 µM | NCI-H460 > 100 µM | EKVX > 100 µM

Nc1ccn(CC(O)c2cc3ccccc3[nH]2)c(=O)n1 (stereo unspecified)
inactive: CAKI-1 > 100 µM | NCI-H226 > 100 µM | OVCAR-4 > 100 µM | SK-OV-3 > 100 µM | Malme-3M > 100 µM | SNB-19 > 100 µM | RPMI-8226 > 100 µM | U-251 > 100 µM | SK-MEL-5 > 100 µM | OVCAR-3 > 100 µM | ACHN > 100 µM | SN12C > 100 µM | HOP-62 > 100 µM | T47D > 100 µM | TK-10 > 100 µM | HT-29 > 100 µM | MDA-N > 100 µM | NCI-H460 > 100 µM | EKVX > 100 µM

COc1ccc(C(C#N)NC23CC4CC(CC(C4)C2)C3)cc1OC (stereo unspecified)
inactive: CAKI-1 > 100 µM | NCI-H226 79.4 µM | OVCAR-4 > 100 µM | SK-OV-3 > 100 µM | Malme-3M > 100 µM | SNB-19 > 100 µM | RPMI-8226 > 100 µM | U-251 > 100 µM | SK-MEL-5 > 100 µM | OVCAR-3 > 100 µM | ACHN > 100 µM | SN12C > 100 µM | HOP-62 > 100 µM | T47D > 100 µM | TK-10 > 100 µM | HT-29 > 100 µM | MDA-N > 100 µM | NCI-H460 > 100 µM | EKVX > 100 µM
